Source: paper PMC11200585, “Prospects for Prostate Cancer Chemotherapy: Cytotoxic Evaluation and Mechanistic Insights of Quinolinequinones with ADME/PK Profile” (Biomedicines, 2024)

How the values were obtained:
Type in all cases: cell-based, human
HOP-92 = assay: NCI-60 five-dose assay (non-small cell lung cancer); settings: 48 h, SRB
SK-MEL-5 [1] = assay: NCI-60 five-dose assay (melanoma); settings: 48 h, SRB
HOP-62 = assay: NCI-60 five-dose assay (non-small cell lung cancer); settings: 48 h, SRB
OVCAR-4 = assay: NCI-60 one-dose screen (ovarian cancer); settings: 10 µM single dose, 48 h
Method: (§1) The obtained quinolinequinones were submitted to NCI, Bethesda, USA, and, as per standard protocol of NCI, all compounds were evaluated for their antiproliferative activity at single-dose assay (10 µM concentration in DMSO) on a panel of 60 cancer cell lines derived from leukemia, non-small-cell lung, colon, CNS, melanoma, ovarian, renal, prostate, and breast, as per protocol. Tested compounds were added to the microtiter culture plates followed by incubation for 48 h at 37 °C. Sulforhodamine B (SRB), a protein-binding dye, is used for endpoint determination. The percent of the growth of the treated cells was determined in comparison to the untreated control cells and the results of each tested compound were reported. Data from one-dose experiments pertain to the percentage growth at 10 μM [16, 17, 18].

NCI/ADR-RES = assay: NCI-60 one-dose screen (ovarian cancer); settings: 10 µM single dose, 48 h
Method: as §1

IGROV1 = assay: NCI-60 one-dose screen (ovarian cancer); settings: 10 µM single dose, 48 h
Method: as §1

SK-OV-3 [2] = assay: NCI-60 one-dose screen (ovarian cancer); settings: 10 µM single dose, 48 h
Method: as §1

OVCAR-8 = assay: NCI-60 one-dose screen (ovarian cancer); settings: 10 µM single dose
Method: as §1

OVCAR-5 = assay: NCI-60 one-dose screen (ovarian cancer); settings: 10 µM single dose, 48 h
Method: as §1

SK-MEL-2 [3] = assay: NCI-60 five-dose assay (melanoma); settings: 48 h, SRB
MALME-3M [4] = assay: NCI-60 five-dose assay (melanoma); settings: 48 h, SRB
SK-MEL-2 [5] = assay: NCI-60 one-dose screen (melanoma); settings: 10 µM single dose, 48 h
Method: as §1

UACC-62 = assay: NCI-60 one-dose screen (melanoma); settings: 10 µM single dose, 48 h
Method: as §1

MALME-3M [6] = assay: NCI-60 one-dose screen (melanoma); settings: 10 µM single dose, 48 h
Method: as §1

LOX IMVI = assay: NCI-60 one-dose screen (melanoma); settings: 10 µM single dose, 48 h
Method: as §1

MDA-MB-435 = assay: NCI-60 one-dose screen (melanoma); settings: 10 µM single dose, 48 h
Method: as §1

SK-MEL-28 = assay: NCI-60 one-dose screen (melanoma); settings: 10 µM single dose
Method: as §1

SK-MEL-5 [7] = assay: NCI-60 one-dose screen (melanoma); settings: 10 µM single dose, 48 h
Method: as §1

UACC-257 = assay: NCI-60 one-dose screen (melanoma); settings: 10 µM single dose, 48 h
Method: as §1

SK-OV-3 [8] = assay: NCI-60 five-dose assay (ovarian cancer); settings: 48 h, SRB
786-0 = assay: NCI-60 five-dose assay (renal cancer); settings: 48 h, SRB
SNB-75 [9] = assay: NCI-60 five-dose assay (CNS cancer); settings: 48 h, SRB
NCI-H460 = assay: NCI-60 five-dose assay (non-small cell lung cancer); settings: 48 h, SRB
RPMI-8226 = assay: NCI-60 five-dose assay (leukemia); settings: 48 h, SRB
SR = assay: NCI-60 five-dose assay (leukemia); settings: 48 h, SRB
EKVX = assay: NCI-60 five-dose assay (non-small cell lung cancer); settings: 48 h, SRB
NCI-H322M = assay: as above; settings: 48 h, SRB
SNB-19 [10] = assay: NCI-60 five-dose assay (CNS cancer); settings: 48 h, SRB
SF-295 = assay: NCI-60 one-dose screen (CNS cancer); settings: 10 µM single dose, 48 h
Method: as §1

SF-268 = assay: NCI-60 one-dose screen (CNS cancer); settings: 10 µM single dose, 48 h
Method: as §1

SNB-75 [11] = assay: NCI-60 one-dose screen (CNS cancer); settings: 10 µM single dose, 48 h
Method: as §1

SF-539 = assay: NCI-60 one-dose screen (CNS cancer); settings: 10 µM single dose, 48 h
Method: as §1

U251 = assay: NCI-60 one-dose screen (CNS cancer); settings: 10 µM single dose, 48 h
Method: as §1

SNB-19 [12] = assay: NCI-60 one-dose screen (CNS cancer); settings: 10 µM single dose, 48 h
Method: as §1

MDA-MB-468 = assay: NCI-60 five-dose assay (breast cancer); settings: 48 h, SRB
RXF 393 = assay: NCI-60 five-dose assay (renal cancer); settings: 48 h, SRB
HCC-2998 = assay: NCI-60 five-dose assay (colon cancer); settings: 48 h, SRB
A498 = assay: NCI-60 five-dose assay (renal cancer); settings: 48 h, SRB
[13] = Homo sapiens, read-out: LC50 (the source's name)

In the case of CCOc1ccccc1NC1=C(Cl)C(=O)c2nc(C)ccc2C1=O [AQQ2], the TGI (HOP-92) is reported as 3.33 µM, the GI50 (HOP-92; Homo sapiens) is reported as 1.8 µM and the LC50 (50% lethal concentration) (HOP-92; Homo sapiens) is reported as 6.13 µM. The TGI (SK-MEL-5 [1]) was 3.13 µM, the GI50 (SK-MEL-5 [1]; Homo sapiens) was 1.74 µM and the CC50 (SK-MEL-5 [1]; [13]) was 5.65 µM. The TGI (HOP-62) was 6.74 µM, the GI50 (HOP-62; Homo sapiens) was 2.27 µM and the LC50 (concentration killing 50% of cells) (HOP-62; Homo sapiens) was 28.8 µM. The “GP (growth percentage)” value (OVCAR-4) was −91.97%, the “GP (growth percentage)” value (NCI/ADR-RES) was −9.58% and the “GP (growth percentage)” value (IGROV1) was −57.52%. For the same compound, the “GP (growth percentage)” value (SK-OV-3 [2]) was 85.34%, the “GP (growth percentage)” value (OVCAR-8; 48 h) was 0.93% and the inhibition at 10 µM (OVCAR-8; Homo sapiens) was 99.1%. For the same compound, the “GP (growth percentage)” value (OVCAR-5) was 40.78%, the TGI (SK-MEL-2 [3]) was 2.86 µM and the GI50 (SK-MEL-2 [3]; Homo sapiens) was 1.44 µM. It also gave a CC50 (SK-MEL-2 [3]; [13]) of 5.69 µM, a TGI (MALME-3M [4]) of 2.77 µM and a GI50 (MALME-3M [4]; Homo sapiens) of 1.36 µM. For the same compound, the LC50 (MALME-3M [4]; Homo sapiens) was 5.64 µM, the “GP (growth percentage)” value (SK-MEL-2 [5]) was −15.72% and the “GP (growth percentage)” value (UACC-62) was −29.14%. For the same compound, the “GP (growth percentage)” value (MALME-3M [6]) was −71.39%, the “GP (growth percentage)” value (LOX IMVI) was −82.20% and the “GP (growth percentage)” value (MDA-MB-435) was −85.72%. For the same compound, the “GP (growth percentage)” value (SK-MEL-28; 48 h) was 14.55%, the inhibition at 10 µM (SK-MEL-28; Homo sapiens) was 85.5% and the “GP (growth percentage)” value (SK-MEL-5 [7]) was −97.76%. For the same compound, the “GP (growth percentage)” value (UACC-257) was −88.33%, the TGI (SK-OV-3 [8]) was 27.1 µM and the GI50 (SK-OV-3 [8]; Homo sapiens) was 13.5 µM. For the same compound, the LC50 (50% net cell kill) (SK-OV-3 [8]; Homo sapiens) was 54.2 µM, the TGI (786-0) was 3.25 µM and the GI50 (786-0; Homo sapiens) was 1.8 µM. For the same compound, the LC50 (786-0; Homo sapiens) was 5.86 µM, the TGI (SNB-75 [9]) was 3.43 µM and the GI50 (SNB-75 [9]; Homo sapiens) was 1.63 µM. It also gave an LC50 (50% lethal concentration) (SNB-75 [9]; Homo sapiens) of 7.21 µM, a TGI (NCI-H460) of 11.4 µM and a GI50 (NCI-H460; Homo sapiens) of 3.02 µM. It also gave a CC50 (NCI-H460; [13]) of 45.4 µM, a TGI (RPMI-8226) of 4.71 µM and a GI50 (RPMI-8226; Homo sapiens) of 1.2 µM. The CC50 (RPMI-8226; [13]) was > 100 µM, the TGI (SR) was 4.14 µM and the GI50 (SR; Homo sapiens) was 0.543 µM. The CC50 (SR; [13]) was > 100 µM, the TGI (EKVX) was 2.98 µM and the GI50 (EKVX; Homo sapiens) was 1.56 µM. For the same compound, the CC50 (EKVX; [13]) was 5.7 µM, the TGI (NCI-H322M) was 7.91 µM and the GI50 (NCI-H322M; Homo sapiens) was 2.22 µM. For the same compound, the CC50 (NCI-H322M; [13]) was 29.7 µM, the TGI (SNB-19 [10]) was 3.97 µM and the GI50 (SNB-19 [10]; Homo sapiens) was 1.8 µM. For the same compound, the CC50 (SNB-19 [10]; [13]) was 8.73 µM, the “GP (growth percentage)” value (SF-295) was 90.72% and the “GP (growth percentage)” value (SF-268) was 32.75%. The “GP (growth percentage)” value (SNB-75 [11]) was 101.38%, the “GP (growth percentage)” value (SF-539) was −37.33% and the “GP (growth percentage)” value (U251) was 37.89%. For the same compound, the “GP (growth percentage)” value (SNB-19 [12]) was 46.47%, the TGI (MDA-MB-468) was 2.88 µM and the GI50 (MDA-MB-468; Homo sapiens) was 1.45 µM. The LC50 (MDA-MB-468; Homo sapiens) was 5.71 µM, the TGI (RXF 393) was 2.78 µM and the GI50 (RXF 393; Homo sapiens) was 1.44 µM. For the same compound, the LC50 (RXF 393; Homo sapiens) was 5.39 µM, the TGI (HCC-2998) was 3.52 µM and the GI50 (HCC-2998; Homo sapiens) was 1.94 µM. For the same compound, the LC50 (concentration killing 50% of cells) (HCC-2998; Homo sapiens) was 6.39 µM, the TGI (A498) was 10.8 µM and the GI50 (A498; Homo sapiens) was 2.65 µM. The LC50 (A498; Homo sapiens) was 34.8 µM.
